# Experimental data from paper PMC5438648, “Identifying the structure-activity relationship of leelamine necessary for inhibiting intracellular cholesterol transport” (Oncotarget, 2017).
# Tests used:
# 1205 Lu melanoma cells = assay: MTS cell viability assay, 1205 Lu melanoma cells; type: cell-based, human; conditions: Homo sapiens, 1205Lu, 72 h, 72 hours treatment, read-out: Melanoma cell killing efficacy (IC50 values) 1205 Lu (Melanoma cells)
# Protocol: (§1) Dr. Craig Myers, Penn State College of Medicine, Hershey, PA provided normal human fibroblast cell line FF2441. Mutant V600E-BRAF human melanoma cell line 1205 Lu was provided by Dr. Herlyn; Wistar Institute, Philadelphia, PA and UACC 903 was provided by Dr. Mark Nelson; University of Arizona, Tucson, AZ. Cell lines were maintained in a 37°C humidified 5% CO2 atmosphere incubator and periodically monitored for phenotypic, genotypic characteristics, and tumorigenic potential to validate and confirm cell line identity.
# (§2) In brief, 5 × 10^3 cells per well in 100 μL of media were seeded and grown in a 96-well plate for 48 to 72 hours and treated with either DMSO vehicle control or 0.62 to 100 μmol/L of compounds for 72 hours. IC50 values for each compound in μmol/L for respective cell lines were measured from three independent experiments using GraphPad Prism version 4.01 (GraphPad Software, La Jolla, CA). In addition, recovery and viability assessment was also measured with these compounds co-treated simultaneously with 10 nmol/L of bafilomycin A1 (BafA1) or 1 mMol/L β-cyclodextrin and the viability was measured using the MTS assay after 24 hours.
# UACC 903 melanoma cells [1] = assay: MTS cell viability assay, UACC 903 melanoma cells; type: cell-based, human; conditions: Homo sapiens, UACC-903, 72 h, 72 hours treatment, read-out: Melanoma cell killing efficacy (IC50 values) UACC 903 (Melanoma cells)
# Protocol: as §1, §2
# [2] = system: normal human fibroblast cell line FF2441; assay: MTS cell viability assay, normal fibroblasts; type: cell-based; conditions: 72 hours treatment, read-out: Melanoma cell killing efficacy (IC50 values) FF2441 (Normal Cells)
# Protocol: as §1, §2
# [3] = Body weight and sub-chronic toxicity assessment (blood biomarkers) in tumor-bearing mice; type: in vivo; conditions: 80 mg/kg oral daily
# Protocol: (§3) 1 × 10^6 UACC 903 cells in 0.2 mL of DMEM supplemented with 10% FBS were subcutaneously injected above both left and right rib cages of 4–6 week old female athymic nu/nu mice. Six to eight days later, mice were randomly sorted into vehicle control 10% PEG (Poly ethylene glycol) and experimental compound 4a or leelamine groups, followed by daily oral administration of 80 mg/kg body weight. Volume of developing tumors in mm^3 was measured on alternate days using calipers along with assessment of body weights.
# At the end of tumorigenicity assessment, blood was collected from each euthanized animal in a serum separator tube with lithium heparin (BD Microtainer), following cardiac puncture and analyzed for levels of ALT (Alanine aminotransferase), AST (Aspartate aminotransferase), ALKP (Alkaline phosphatase), ALB (Albumin), GLB (Globulin), TPR (Total Protein), TBIL (Total bilirubin), BUN (Blood urea nitrogen), GLU (Glucose), CK (Creatine kinase), CAL (Calcium).
# UACC 903 melanoma cells [4] = assay: Tumorigenicity assessment, xenografted melanoma tumors; type: in vivo; conditions: 80 mg/kg oral daily; UACC 903 xenograft, athymic nu/nu mice
# Protocol: as §3
# melanoma cells = assay: Autophagic flux: Western blot of p62 and LC3B; type: cell-based, human; conditions: Western blotting, 24 hours
# From the text: (§4) Cell lysates were harvested and processed as described in refs [14, 29, 31, 34]. […] Protein lysates were collected for Western blotting analysis. Blots were probed with antibodies according to each supplier's recommendations: antibodies to IGF-1R, total AKT, phosphor AKT (Ser473), total PRAS40, phospho-PRAS40 (Thr246), total ERK1/2, phospho-ERK1/2 (Thr202/Tyr 204), total CDK2, phospho-CDK2 (Thr160), p62, LC3B, total STAT, phospho-STAT3 (Tyr705), caspase 3 and cleaved PARP from Cell Signaling Technology (Danvers, MA); cyclin D1, α-enolase and secondary antibodies conjugated with horseradish peroxidase from Santa Cruz Biotechnology (Santa Cruz, CA). Immunoblots were developed using the enhanced chemiluminescence (ECL) detection system (Thermo Fisher Scientific, Rockford, IL).
# [5] = system: UACC 903 melanoma cell line; assay: Western blot of signaling pathways (PI3K/AKT, STAT3, MAPK; pERK1/2); type: cell-based, human; conditions: active 3-5 μmol/L, inactive 30-50 μmol/L, 24 hours
# From the text: as §4
# UACC 903 cells = assay: Endocytosis: Alexa Fluor 488 transferrin uptake; type: cell-based, human; conditions: UACC 903, 2 hours treatment
# Protocol: The endocytotic capacity of the cells was measured as described in Kuzu et al. 2014 [14]. Briefly, UACC 903 cells were seeded into chamber slides and treated with the particular agents for 2 hours. Next, Alexa Flor 488 tagged transferrin protein was added at a final concentration of 5 μg/mL and incubated for 30 minutes. Cells were then fixed on the slide with 4% paraformaldehyde and analyzed by fluorescence microscopy as described previously. Measurement of compounds effects on lysosomotropism was assessed through the appearance of cellular vacuolization of UACC 903 cells growing at 70 to 80% confluency on 100 mm culture dishes compared to controls. For some experimental conditions cells were co-treated with 10 nmol/L of BafA1 for 3 hours. Light microscopic images were used to assess cellular vacuolization.
SMILES,IC50 (1205 Lu melanoma cells) [µM],IC50 (UACC 903 melanoma cells [1]) [µM],IC50 [2] [µM],body weights of mice ([3]; 24 days of treatment),"blood parameters (ALT, AST, ALKP, ALB, GLB, TPR, TBIL, BUN, GLU, CK and CAL) indicative of organ-related sub-chronic toxicity ([3]; end of study)",reduction of tumor volume compared with vehicle control (UACC 903 melanoma cells [4]) [%],autophagic flux (p62 and LC3B proteins) (melanoma cells),"effect on PI3K/AKT, STAT3 and MAPK signaling pathways [5]",cellular endocytosis (Alexa Fluor conjugated transferrin uptake) (UACC 903 cells)
"CC(C)c1ccc2c(c1)CCC1[C@](C)(CNC(c3ccccc3)(c3ccccc3)c3ccccc3)CCC[C@]21C (stereo partly drawn) [5f, {[(1R, 4aS)-1,4a-dimetyl-7-(propan-2-yl)-1,2,3,4,4a, 9, 10, 10a-octahydrophenanthren-1-yl]methyl} (triphenylmethyl) amine]",> 100,> 100,> 100,,,,,,
"CC(C)c1ccc2c(c1)CCC1[C@](C)(CNC(=O)c3ccccc3)CCC[C@]21C (stereo partly drawn) [5d, N-(((1R, 4aS)-7-isopropyl-1,4a-dimethyl-1,2,3,4,4a, 9, 10, 10a-octahydrophenanthren-1-yl)methyl) benzamide]",> 100,> 100,> 100,,,,,,
"CC(C)C1=CC2=CCC3[C@](C)(CCC[C@@]3(C)C(N)=O)C2CC1 (stereo partly drawn) [3a, (1R, 4aR)-7-isopropyl-1,4a-dimethyl-1,2,3,4,4a,4b,5,6,10,10a-decahydrophenanthrene-1-carboxamide]",81 ± 2.1,70.1 ± 1.8,> 100,,,,,,
"CC(C)C1=CC2=CCC3[C@](C)(CN)CCC[C@]3(C)C2CC1 (stereo partly drawn) [4a, [(1R, 4aR)-1,4a-dimethyl-7-(propan-2-yl)-1,2,3,4,4a, 4b, 5,6,10,10a-decahydrophenanthren-1-yl] methanamine]",2.9,2.1,8.33 ± 0.4,No significant differences,fell in the normal range,51,dose dependently induced accumulation of p62 and LC3B proteins,inhibited,
"CC(C)C1=CC2=CC[C@@H]3[C@](C)(CCC[C@@]3(C)C(=O)O)[C@H]2CC1 [Abietic acid, reference compound]",> 100,> 100,> 100,,,,,did not affect these pathways,did not occur
"CCN(CC)C[C@]1(C)CCC[C@]2(C)C3CCC(C(C)C)=CC3=CCC12 (stereo partly drawn) [4c, N-ethyl-N-(((1R, 4aR)-7-isopropyl-1,4a-dimethyl-1,2,3,4,4a, 4b,5,6,10,10a-decahydrophenanthren-1-yl)methyl) ethanamine]",24.3 ± 2.5,24.4 ± 1.4,> 100,,,,,,
"CNC[C@]1(C)CCC[C@]2(C)C3CCC(C(C)C)=CC3=CCC12 (stereo partly drawn) [4b, {[(1R, 4aR)-1,4a-dimethyl-7-(propan-2-yl)-1,2,3,4,4a, 4b, 5,6,10,10a-decahydrophenanthren-1-yl]methyl}(methyl) amine]",2.3,2.3,9.33 ± 1.2,,,,,,
"CNC(=O)[C@]1(C)CCC[C@]2(C)C3CCC(C(C)C)=CC3=CCC21 (stereo partly drawn) [3b, (1R, 4aR)-N, 1,4a-trimethyl-7-(propan-2-yl)-1,2,3,4,4a, 4b, 5,6, 10, 10a-decahydrophenanthrene-1-carboxamide]",> 100,> 100,> 100,,,,,,
